Data on two compounds can be found in ChEMBL document CHEMBL3992569, “Opioid Receptor Activity and Analgesic Potency of DPDPE Peptide Analogues Containing a Xylene Bridge” (ACS Med Chem Lett, 2017).

Assay [1] deals with Mus musculus. As to the kind of experiment: Analgesic activity in CD-1 mouse model of formalin-induced pain assessed as increase in latency to respond with hind paw lick or biting at 150 nmol/mouse, sc administered 15 mins prior to formalin injection measured up to 40 mins post dose. The class given is functional, organism-based.
Assay [2] deals with Mus musculus. Put plainly: Antinociceptive activity in CD-1 mouse model of thermal-induced nociception assessed as increase in latency to tail withdrawal at 23 nmol/mouse, icv measured 45 mins post dose by tail flick test. The class given is functional.
Assay [3] deals with Mus musculus. Put plainly: Antinociceptive activity in CD-1 mouse model of thermal-induced nociception assessed as increase in latency to respond with hind paw lick or jumping at 23 nmol/mouse, icv measured 45 mins post dose by hot plate test. The class given is functional.
The test system of assay [4] is Mus musculus. Put plainly: Antinociceptive activity in CD-1 mouse model of thermal-induced nociception assessed as increase in latency to respond with hind paw lick or jumping at 23 nmol/mouse, icv measured 15 to 60 mins post dose by hot plate test relative to control. The class given is functional.
Assay [5] relates to Mus musculus. As to the kind of experiment: Antinociceptive activity in CD-1 mouse model of thermal-induced nociception assessed as increase in latency to tail withdrawal at 23 nmol/mouse, icv measured 15 to 60 mins post dose by tail flick test relative to control. The class given is functional.

Activity calls are given as the source filed them. The calls are words filed in the database; no cut-off is given here. Some results are limits rather than exact numbers.

For `CC1(C)SSC(C)(C)[C@@H](NC(=O)[C@@H](N)Cc2ccc(O)cc2)C(=O)NCC(=O)N[C@@H](Cc2ccccc2)C(=O)N[C@H]1C(=O)O`, in the assay with Mus musculus [1], the outcome was inactive. Further, the result in the assay on Mus musculus [2] and in the assay with Mus musculus [3] was Active.
With `CC1(C)SCc2cccc(c2)CSC(C)(C)[C@@H](NC(=O)[C@@H](N)Cc2ccc(O)cc2)C(=O)NCC(=O)N[C@@H](Cc2ccccc2)C(=O)N[C@H]1C(=O)O.O=C(O)C(F)(F)F`, the result with Mus musculus [1] was Active. In addition, the MPE in the assay with Mus musculus [4] and with Mus musculus [5] was >60% throughout.
